Laboratory results: ChEMBL document CHEMBL5726207, “Substituted N,2-diarylquinoline-4-carboxamides and the use thereof as anti-inflammatory agents” (2019)
Several values for one entry are separate records, joined by “and”; a condition that tells them apart may be missing. Equal entries are not always repeated.

Target: Prostaglandin F2-alpha receptor (Homo sapiens, UniProt P43088)
Experiment: 470 nm/em. 525 nm in a fluorescence measuring instrument (FLIPR Tetra, MolecularDevices) for 120 seconds.
Type: cell-based

Chain of Prostaglandin F2-alpha receptor (P43088 whole entry): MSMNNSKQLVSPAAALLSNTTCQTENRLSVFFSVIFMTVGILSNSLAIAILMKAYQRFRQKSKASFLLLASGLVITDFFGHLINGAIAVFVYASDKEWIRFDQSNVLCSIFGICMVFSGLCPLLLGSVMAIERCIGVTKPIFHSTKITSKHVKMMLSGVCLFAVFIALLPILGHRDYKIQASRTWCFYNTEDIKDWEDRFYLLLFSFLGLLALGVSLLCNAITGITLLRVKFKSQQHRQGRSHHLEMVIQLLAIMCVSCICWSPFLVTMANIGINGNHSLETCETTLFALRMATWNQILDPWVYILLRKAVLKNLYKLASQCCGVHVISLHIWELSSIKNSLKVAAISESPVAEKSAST

Cc1c(-c2ccccc2)nc2ccc(Br)cc2c1C(=O)Nc1ccc(C(=O)O)cc1F
IC50: 0.053 µM and 0.047 µM
